Here are results for 21 molecules from patent publication US11020398B2, “Amino-pyrrolopyrimidinone compounds and methods of use thereof” (ArQule, Inc., priority 2016, dated 2021).

Assay [1] addresses full-length activated BTK mutant C481S (Homo sapiens (Human), UniProt Q06187, C481S). The assay can be described thus: AlphaScreen assay, BTK mutant C481S. It is filed as biochemical. Conditions: for inhibition at 10 µM: read-out: BTK-C481S % @ 10 uM, @ 10 uM. As for the experimental part:
(§1) The activated BTK was frozen in 50 μl aliquots (125-150 μg/ml).
(§2) BTK activity was assayed using a PLCγ2-derived biotinylated peptide substrate (biotin-[…]-OH) and AlphaScreen™ (Amplified Luminescent Proximity Homogeneous Assay) technology. The extent of peptide phosphorylation was determined by using acceptor beads conjugated to phosphotyrosine antibody that recognized the phosphorylated peptide and donor beads conjugated to streptavidin that binds to the biotin on the peptide. Excitation of the donor beads converted ambient oxygen to excited singlet oxygen which when in close proximity to acceptor beads, reacted with acceptor beads resulting in signal amplification.
(§3) Test inhibitors and controls were prepared in 10% DMSO at 10-fold the desired final concentration and added to each well of a reaction plate (Corning 96-well half-area solid white nonbinding surface plate) in a volume of 2.5 μl. […] The plate was incubated for 120 min at room temperature and the reaction stopped by the addition of 10 μl stop/detection mixture containing 35 mM EDTA, 50 ug/ml AlphaScreen™ Streptavidin Donor beads (final concentration is 500 ng/well) and AlphaScreen™ Phospho-tyrosine (P-Tyr-100) Acceptor beads (final concentration is 500 ng/well) under green light conditions. The plate was incubated overnight at room temperature in the dark and the plates read on the BMG PolarStar Omega ([…], Gain=4000). Data were archived and analyzed with a 4-parameter fit to generate IC50 values using the CDD Vault from Collaborative Drug Discovery.
On the technique in general: Alpha assays give light when donor and acceptor beads are brought close together.

For assay [2], the target named is full-length activated BTK (wildtype) (Homo sapiens (Human), UniProt Q06187). The assay can be described thus: AlphaScreen assay, wild-type BTK. It counts as biochemical. As for the experimental part:
as §1, §2, §3

The term IC50 denotes the concentration that gives 50% inhibition. A low value points to higher potency.

full-length activated BTK (wildtype), sequence (Q06187 whole entry): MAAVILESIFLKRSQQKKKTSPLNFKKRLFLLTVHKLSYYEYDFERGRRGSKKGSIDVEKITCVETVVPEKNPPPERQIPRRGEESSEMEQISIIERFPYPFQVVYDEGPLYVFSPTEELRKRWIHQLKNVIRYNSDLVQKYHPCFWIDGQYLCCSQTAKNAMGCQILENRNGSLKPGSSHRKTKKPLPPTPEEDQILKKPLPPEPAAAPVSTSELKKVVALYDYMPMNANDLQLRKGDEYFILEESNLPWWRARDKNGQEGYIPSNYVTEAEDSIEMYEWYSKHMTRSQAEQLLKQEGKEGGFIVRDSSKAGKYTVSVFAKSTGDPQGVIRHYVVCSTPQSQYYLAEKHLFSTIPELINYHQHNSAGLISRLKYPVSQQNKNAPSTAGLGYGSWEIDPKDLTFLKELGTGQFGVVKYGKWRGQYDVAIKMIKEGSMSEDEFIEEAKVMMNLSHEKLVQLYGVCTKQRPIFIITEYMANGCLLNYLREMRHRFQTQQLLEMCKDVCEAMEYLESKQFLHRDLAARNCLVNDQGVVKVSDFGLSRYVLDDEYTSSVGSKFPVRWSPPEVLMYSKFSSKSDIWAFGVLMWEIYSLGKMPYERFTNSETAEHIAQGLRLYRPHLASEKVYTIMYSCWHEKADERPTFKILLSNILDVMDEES
full-length activated BTK mutant C481S, sequence (Q06187 whole entry C481S): as the sequence (Q06187 whole entry) above, with C481S counted along it

Turning to `CNC(=O)c1cccc(Oc2ccc(C(=O)c3c[nH]c4ncnc(N[C@@H]5CC[C@@H](CO)OC5)c34)c(Cl)c2)n1` [Compound I-319, 6-(3-chloro-4-(4-(((3R,6S)-6-(hydroxymethyl)tetrahydro-2H-pyran-3-yl)amino)-7H-pyrrolo[2,3-d]pyrimidine-5-carbonyl)phenoxy)-N-methyl picolinamide], the IC50 in assay [1] was 127 nM; in assay [2], 444 nM.

On to `C=CC(=O)N1CCCC(Nc2ncnc3[nH]cc(C(=O)c4ccc(Oc5ccccc5)cc4Cl)c23)C1` (racemic) [Compound I-321r, (racemic)-1-(3-((5-(2-chloro-4-phenoxybenzoyl)-7H-pyrrolo[2,3-d]pyrimidin-4-yl)amino)piperidin-1-yl)prop-2-en-1-one], for which the IC50 in assay [1] is 179 nM; in assay [2] it was 4.5 nM.

Regarding `CN1C[C@H](Nc2ncnc3[nH]cc(C(=O)c4ccc(Oc5ccccc5)cc4Cl)c23)C[C@H]1CO` [Compound I-342e, (2-chloro-4-phenoxyphenyl)(4-(((3R,5S)-5-(hydroxymethyl)-1-methylpyrrolidin-3-yl)amino)-7H-pyrrolo[2,3-d]pyrimidin-5-yl)methanone], the IC50 in assay [1] was 33.4 nM; in assay [2] it was 14.2 nM.

`O=C(c1cc(NC(=O)C2CCOCC2)ccc1Cl)c1c[nH]c2ncnc(N[C@@H]3CC[C@@H](CO)OC3)c12` [Compound I-603, N-(4-chloro-3-(4-(((3R,6S)-6-(hydroxymethyl)tetrahydro-2H-pyran-3-yl)amino)-7H-pyrrolo[2,3-d]pyrimidine-5-carbonyl)phenyl)tetrahydro-2H-pyran-4-carboxamide]: the IC50 is 1770 nM in assay [1] and 466 nM in assay [2].

Regarding `O=C(Nc1cccc(C(=O)c2c[nH]c3ncnc(N[C@@H]4CC[C@@H](CO)OC4)c23)c1)c1ccccn1` [Compound I-643, N-(3-(4-(((3R,6S)-6-(hydroxymethyl)tetrahydro-2H-pyran-3-yl)amino)-7H-pyrrolo[2,3-d]pyrimidine-5-carbonyl)phenyl)picolinamide], the IC50 in assay [1] was found to be 150 nM; in assay [2], 269 nM.

Take `O=C(c1ccc(C(=O)N2CCN(c3ccccn3)CC2)cc1Cl)c1c[nH]c2ncnc(N[C@@H]3CC[C@@H](CO)OC3)c12` [Compound I-616, (3-chloro-4-(4-(((3R,6S)-6-(hydroxymethyl)tetrahydro-2H-pyran-3-yl)amino)-7H-pyrrolo[2,3-d]pyrimidine-5-carbonyl)phenyl)(4-(pyridin-2-yl)piperazin-1-yl)methanone]: the IC50 in assay [1] was found to be 506 nM; in assay [2] it was 116 nM.

With `COCC(=O)Nc1cccc(C(=O)c2c[nH]c3ncnc(N[C@@H]4CC[C@@H](CO)OC4)c23)c1` [Compound I-645, N-(3-(4-(((3R,6S)-6-(hydroxymethyl)tetrahydro-2H-pyran-3-yl)amino)-7H-pyrrolo[2,3-d]pyrimidine-5-carbonyl)phenyl)-2-methoxyacetamide], the inhibition at 10 µM in assay [1] is 81%. In assay [2], this molecule registered an IC50 of 743 nM.

Regarding `CC(=O)N1CC(Nc2ncnc3[nH]cc(C(=O)c4ccc(Oc5ccccc5)cc4Cl)c23)CCC1CO` (racemic) [Compound I-654, rac-1-(5-((5-(2-chloro-4-phenoxybenzoyl)-7H-pyrrolo[2,3-d]pyrimidin-4-yl)amino)-2-(hydroxymethyl)-piperidin-1-yl)ethan-1-one], the IC50 in assay [1] was found to be 20.7 nM; in assay [2], 6.55 nM.

Turning to `O=C(c1cc(C(=O)N2CCOCC2)ccc1Cl)c1c[nH]c2ncnc(N[C@@H]3CC[C@@H](CO)OC3)c12` [Compound I-612, (4-chloro-3-(4-(((3R,6S)-6-(hydroxymethyl)tetrahydro-2H-pyran-3-yl)amino)-7H-pyrrolo[2,3-d]pyrimidine-5-carbonyl)phenyl)(morpholino) methanone], the inhibition at 10 µM in assay [1] is 82%. The molecule also registered an IC50 in assay [2] of 1630 nM.

As to `O=C(Nc1ccc(Cl)c(C(=O)c2c[nH]c3ncnc(N[C@@H]4CC[C@@H](CO)OC4)c23)c1)c1cc2c(cn1)CCCC2` [Compound I-606, N-(4-chloro-3-(4-(((3R,6S)-6-(hydroxymethyl)tetrahydro-2H-pyran-3-yl)amino)-7H-pyrrolo[2,3-d]pyrimidine-5-carbonyl)phenyl)-5,6,7,8-tetrahydroisoquinoline-3-carboxamide], the IC50 amounted to 55.9 nM in assay [1] and 0.98 nM in assay [2].

Turning to `O=C(c1ccc(Oc2ccccc2)cc1Cl)c1c[nH]c2ncnc(NC[C@@H]3C[C@@H](CO)N(Cc4ccccc4)C3)c12` [Compound I-657, (4-((((3S,5S)-1-benzyl-5-(hydroxymethyl)pyrrolidin-3-yl)methyl)amino)-7H-pyrrolo[2,3-d]pyrimidin-5-yl)(2-chloro-4-phenoxyphenyl)methanone], the IC50 in assay [1] was 832 nM; in assay [2] it was 236 nM.

Consider `O=C(c1ccc(Oc2ccccc2)cc1Cl)c1c[nH]c2ncnc(NC[C@H]3CC[C@@H](CO)O3)c12` [Compound I-362e, (2-chloro-4-phenoxyphenyl)(4-((((2R,5S)-5-(hydroxymethyl)tetrahydrofuran-2-yl)methyl)amino)-7H-pyrrolo[2,3-d]pyrimidin-5-yl)methanone], for which the IC50 was determined as 44.5 nM in assay [1] and 35.6 nM in assay [2].

For `CN1[C@H](CO)CCC[C@@H]1CNc1ncnc2[nH]cc(C(=O)c3ccc(Oc4ccccc4)cc3Cl)c12` (racemic) [Compound I-360e, racemic-cis-(2-chloro-4-phenoxyphenyl)(4-(((6-(hydroxymethyl)-1-methylpiperidin-2-yl)methyl)amino)-7H-pyrrolo[2,3-d]pyrimidin-5-yl)methanone], the IC50 in assay [1] was 59.4 nM; in assay [2] it was 1.07 nM.

Turning to `O=C(Cc1ccccc1)Nc1ccc(Cl)c(C(=O)c2c[nH]c3ncnc(N[C@@H]4CC[C@@H](CO)OC4)c23)c1` [Compound I-602, N-(4-chloro-3-(4-(((3R,6S)-6-(hydroxymethyl)tetrahydro-2H-pyran-3-yl)amino)-7H-pyrrolo[2,3-d]pyrimidine-5-carbonyl)phenyl)-2-phenylacetamide], the IC50 worked out at 317 nM in assay [1] and 140 nM in assay [2].

Turning to `O=C(Nc1ccccc1)Nc1ccc(Cl)c(C(=O)c2c[nH]c3ncnc(N[C@@H]4CC[C@@H](CO)OC4)c23)c1` [Compound I-608, 1-(4-chloro-3-(4-(((3R,6S)-6-(hydroxymethyl)tetrahydro-2H-pyran-3-yl)amino)-7H-pyrrolo[2,3-d]pyrimidine-5-carbonyl)phenyl)-3-phenylurea], the IC50 in assay [1] turned out to be 187 nM; in assay [2] it was 8.19 nM.

For `CN1CCN(C(=O)c2ccc(C(=O)c3c[nH]c4ncnc(N[C@@H]5CC[C@@H](CO)OC5)c34)c(Cl)c2)CC1` [Compound I-620, (3-chloro-4-(4-(((3R,6S)-6-(hydroxymethyl)tetrahydro-2H-pyran-3-yl)amino)-7H-pyrrolo[2,3-d]pyrimidine-5-carbonyl)phenyl)(4-methylpiperazin-1-yl)methanone], the inhibition at 10 µM in assay [1] amounted to 70%. The IC50 in assay [2] amounted to 598 nM.

Regarding `O=C(NC1CC2(COC2)C1)c1ccc(C(=O)c2c[nH]c3ncnc(N[C@@H]4CC[C@@H](CO)OC4)c23)c(Cl)c1` [Compound I-621, 3-chloro-4-(4-(((3R,6S)-6-(hydroxymethyl)tetrahydro-2H-pyran-3-yl)amino)-7H-pyrrolo[2,3-d]pyrimidine-5-carbonyl)-N-(2-oxaspiro[3.3]heptan-6-yl)benzamide], the inhibition at 10 µM in assay [1] is 85%. The IC50 in assay [2] came to 571 nM.

For the molecule `O=C(Nc1ccccc1)c1ccc(C(=O)c2c[nH]c3ncnc(N[C@@H]4CC[C@@H](CO)OC4)c23)c(Cl)c1` [Compound I-236, 3-chloro-4-(4-(((3R,6S)-6-(hydroxymethyl)tetrahydro-2H-pyran-3-yl)amino)-7H-pyrrolo[2,3-d]pyrimidine-5-carbonyl)-N-phenylbenzamide], the IC50 in assay [1] was determined as 98.4 nM; in assay [2], 181 nM.

For `CC#CC(=O)N1CCCC1CNc1ncnc2[nH]cc(C(=O)c3ccc(Oc4ccccc4)cc3Cl)c12` (racemic) [Compound I-328r, (racemic)-1-(2-(((5-(2-chloro-4-phenoxybenzoyl)-7H-pyrrolo[2,3-d]pyrimidin-4-yl)amino)methyl)pyrrolidin-1-yl)but-2-yn-1-one], the figures for the IC50 in assay [1] and in assay [2] were 18.4 nM and 0.98 nM, respectively.

In the case of `O=C(c1ccc(Nc2ccccc2)cc1Cl)c1c[nH]c2ncnc(N[C@@H]3CC[C@@H](CO)OC3)c12` [Compound I-650, (2-Chloro-4-(phenylamino)phenyl)(4-(((3R,6S)-6-(hydroxymethyl)tetrahydro-2H-pyran-3-yl)amino)-7H-pyrrolo[2,3-d]pyrimidin-5-yl)methanone], the IC50 amounted to 326 nM in assay [1] and 202 nM in assay [2].

Consider `COCCOc1ccc(Cl)c(C(=O)c2c[nH]c3ncnc(N[C@@H]4CC[C@@H](CO)OC4)c23)c1` [Compound I-648, (2-chloro-5-(2-methoxyethoxy)phenyl)(4-(((3R,6S)-6-(hydroxymethyl)tetrahydro-2H-pyran-3-yl)amino)-7H-pyrrolo[2,3-d]pyrimidin-5-yl)methanone], for which the figures for the IC50 in assay [1] and in assay [2] were 810 nM and 731 nM, respectively.
